Here are results for 19 compounds from patent US20260265262A1, “CDK2 INHIBITORS AND METHODS OF USING THE SAME” (Cedilla Therapeutics, Inc., priority 2022, published 2026).

The target in one test is CDK2/Cyclin E1 (Homo sapiens, UniProt P24941). Kind of test: ADP-Glo Luminescent Kinase Assay (CDK2/E1-37C). It is filed as biochemical. Particulars: 0.18 nM CDK2/Cyclin E1, 100 μM ATP, 1.5 μM Histone H1, 37° C., 60 min pre-incubation. As for the experimental part:
Inhibition of CDK2/Cyclin E1 activity by the presence of small molecules was evaluated using ADP-Glo Luminescent Kinase Assay (Promega). Activated CDK2/Cyclin E1 was incubated with its substrate Histone H1 (SignalChem H10-54N) in the kinase reaction buffer (100 μM ATP, 50 mM HEPES pH 7.5, 10 mM MgCl2, 1 mM EDTA, 2 mM DTT, 0.01% Brij35, 0.5 mg/mL BSA). Luminescence was recorded with an Envision plate reader (PerkinElmer).
Dose titrations of inhibitors in 100% DMSO were combined with 0.36 nM CDK2/Cyclin E1 in reaction buffer. The mixtures were incubated for 60 minutes at 37° C. before the addition of ATP and Histone H1 substrate to initiate the kinase reaction. The final conditions were 0.18 nM CDK2/Cyclin E1, 100 μM ATP, and 1.5 μM Histone H1. The reactions were incubated at 37° C. for 90 minutes before being stopped with the addition of ADP-Glo reagent. This mixture was incubated at room temperature for 60 minutes before Kinase Detection Solution is added to generate luminescence. The stopped reactions were analyzed on an Envision plate reader. The conversion ratios were normalized to yield % activity, plotted against compound concentration, and fit to a four-parameter equation to determine the IC50 for each compound.
A general note: ADP-Glo turns the ADP formed in a reaction into a luminescent signal.

Another test deals with Kuramochi cells. Kind of test: IncuCyte cell proliferation assay. The class given is cell-based. The procedure: IncuCyte® assay was used to measure the effect of disclosed compounds on cell proliferation. Fluorescent microscopy images of cells were taken immediately after compound treatment and 72 hours later. Image analysis software was used to obtain cell counts as a function of compound concentration. Kuramochi cells labeled with mApple-H2B were seeded on 384-well assay-ready plates. Plates were placed in an IncuCyte® (Sartorius) and scanned at 0 and 72 hours. IncuCyte® software was used to count the number of fluorescent nuclei in each well. The fold change in cell count from 0 to 72 hours in wells treated with increasing compounds concentrations (10 pts, 1/2 log dilution, 20 μM top concentration) was normalized to DMSO control wells. The normalized cell counts were fit with dose response curves and a […] was calculated.

The mark [1] stands for this setting: read-out: ADPGLO (CDK2/E1-37C): IC50.
Setting [2] is: Kuramochi cells labeled with mApple-H2B, cell count 0 to 72 hours, 20 μM top concentration, read-out: IncuCyte Kuramochi RB-WT: IC50.
Where [3] appears, read: read-out: IncuCyte Kuramochi RB-WT: IC50 (μM).

Structures are written as SMILES. Read-outs that look alike come from different tables or passages of the source.

Consider `C[C@@H](OCC12CCC(CC1)OC2)[C@H](NC(=O)[C@@H]1CN(C(=O)c2cnn(Cc3ccc(C(F)(F)F)cc3)c2)CC12CN(C(=O)C1(C(F)(F)F)CC1)C2)C(=O)N1CCC(c2ccc(C(=O)O)cc2)CC1` [Example I-12], for which the results for the IC50 at CDK2/Cyclin E1 (setting [1]) and in the test on Kuramochi cells (setting [2]) were less than 0.5 µM and greater than 20 µM, respectively.
For `COC(=O)c1ccc(C2CCN(C(=O)[C@@H](NC(=O)[C@@H]3CN(C(=O)c4cnn(Cc5ccc(C(F)(F)F)cc5)c4)CC34CN(C(=O)C3(C(F)(F)F)CC3)C4)[C@@H](C)OCC34CCC(CC3)OC4)CC2)cc1` [Example I-13] the same measures were less than 0.5 µM and 0.5 to 5 µM.
In the same order, the values of `C[C@@H](OCC12CCC(CC1)OC2)[C@H](NC(=O)[C@@H]1CN(C(=O)c2cnn(Cc3ccccc3C(=O)O)c2)CC12CN(C(=O)C1(C(F)(F)F)CC1)C2)C(=O)N1CCN(Cc2ccc(C(F)(F)F)cc2)CC1` [Example I-14, 2-((4-((S)-8-(((2S,3R)-3-((2-oxabicyclo[2.2.2]octan-4-yl)methoxy)-1-oxo-1-(4-(4-(trifluoromethyl)benzyl)piperazin-1-yl)butan-2-yl)carbamoyl)-2-(1-(trifluoromethyl)cyclopropane-1-carbonyl)-2,6-diazaspiro[3.4]octane-6-carbonyl)-1H-pyrazol-1-yl)methyl)benzoic acid] are less than 0.5 µM and greater than 20 µM.
For `C[C@@H](OCC12CCC(CC1)OC2)[C@H](NC(=O)[C@@H]1CN(C(=O)c2cnn(Cc3ccc(C(F)(F)F)cc3)c2)CC12CN(C(=O)C1(C(F)(F)F)CC1)C2)C(=O)NCCc1nnn[nH]1` [Example I-16] the same measures were 5 to 10 µM and greater than 20 µM.
`COC(=O)C1CCN(C(=O)[C@@H](NC(=O)[C@@H]2CN(C(=O)c3cnn(Cc4ccccc4)c3)CC23CN(C(=O)[C@H]2CC2(C)C)C3)[C@@H](C)OCC2CCCCC2)CC1` [Example I-17]: the IC50 at CDK2/Cyclin E1 (setting [1]) and in the test with Kuramochi cells (setting [2]) was less than 0.5 µM in each case.
Regarding `C[C@@H](OCC1CCCCC1)[C@H](NC(=O)[C@@H]1CN(C(=O)c2cnn(Cc3ccccc3)c2)CC12CN(C(=O)[C@H]1CC1(C)C)C2)C(=O)NS(C)(=O)=O` [Example I-18], the IC50 on CDK2/Cyclin E1 (setting [1]) is less than 0.5 µM; in the test on Kuramochi cells (setting [2]), greater than 20 µM.
Consider `N#Cc1ccc(Cn2cc(C(=O)N3CC(C(=O)N[C@H](COCC45CCC(CC4)OC5)c4ccc(C(=O)O)cc4)C4(C3)CN(C(=O)C3(C(F)(F)F)CC3)C4)cn2)cc1` (some centres unmarked) [Example I-19], for which the figures for the IC50 at CDK2/Cyclin E1 (setting [1]) and in the test with Kuramochi cells (setting [2]) were greater than 10 µM and greater than 20 µM, respectively.
Turning to `COC(=O)c1ccc([C@@H](COCC23CCC(CC2)OC3)NC(=O)C2CN(C(=O)c3cnn(Cc4ccc(C#N)cc4)c3)CC23CN(C(=O)C2(C(F)(F)F)CC2)C3)cc1` (some centres unmarked) [Example I-20], the results for the IC50 on CDK2/Cyclin E1 (setting [1]) and in the test on Kuramochi cells (setting [2]) were 5 to 10 µM and greater than 20 µM, respectively.
As for `COC(=O)CC1CN(C(=O)[C@@H]2CN(C(=O)c3cncs3)CC23CN(C(=O)[C@H]2CC2(C)C)C3)CCN1CC1CCCCC1` (some centres unmarked) [Example I-21], the IC50 was greater than 10 µM on CDK2/Cyclin E1 (setting [1]) and greater than 20 µM in the test on Kuramochi cells (setting [2]).
For `COc1ccc(S(=O)(=O)NC(=O)[C@@H](NC(=O)[C@@H]2CN(C(=O)c3cnn(Cc4ccccc4)c3)CC23CN(C(=O)[C@H]2CC2(C)C)C3)[C@@H](C)OCC2CCCCC2)cc1` [Example I-22] the same measures were less than 0.5 µM and 0.5 to 5 µM.
In the same order, the values of `N#Cc1ccc(Cn2cc(C(=O)N3CC(C(=O)N[C@@H](COCC45CCC(CC4)OC5)c4ccc(C(=O)O)cc4)C4(C3)CN(C(=O)C3(C(F)(F)F)CC3)C4)cn2)cc1` (stereo partly drawn) [Example I-23, 4-((1R)-2-((2-oxabicyclo[2.2.2]octan-4-yl)methoxy)-1-(6-(1-(4-cyanobenzyl)-1H-pyrazole-4-carbonyl)-2-(1-(trifluoromethyl)cyclopropane-1-carbonyl)-2,6-diazaspiro[3.4]octane-8-carboxamido)ethyl)benzoic acid] are greater than 10 µM and greater than 20 µM.
For `COC(=O)c1ccc([C@H](COCC23CCC(CC2)OC3)NC(=O)C2CN(C(=O)c3cnn(Cc4ccc(C#N)cc4)c3)CC23CN(C(=O)C2(C(F)(F)F)CC2)C3)cc1` (stereo partly drawn) [Example I-24, methyl 4-((1R)-2-((2-oxabicyclo[2.2.2]octan-4-yl)methoxy)-1-(6-(1-(4-cyanobenzyl)-1H-pyrazole-4-carbonyl)-2-(1-(trifluoromethyl)cyclopropane-1-carbonyl)-2,6-diazaspiro[3.4]octane-8-carboxamido)ethyl)benzoate], the IC50 was 5 to 10 µM at CDK2/Cyclin E1 (setting [1]) and greater than 20 µM in the test on Kuramochi cells (setting [2]).
For `C[C@@H](OCC12CCC(CC1)OC2)[C@H](NC(=O)[C@@H]1CN(C(=O)c2cnn(Cc3ccc(C(F)(F)F)cc3)c2)CC12CN(C(=O)C1(C(F)(F)F)CC1)C2)C(=O)N1CCC(C#N)CC1` [Example I-25, (S)—N-((2S,3R)-3-((2-oxabicyclo[2.2.2]octan-4-yl)methoxy)-1-(4-cyanopiperidin-1-yl)-1-oxobutan-2-yl)-6-(1-(4-(trifluoromethyl)benzyl)-1H-pyrazole-4-carbonyl)-2-(1-(trifluoromethyl)cyclopropane-1-carbonyl)-2,6-diazaspiro[3.4]octane-8-carboxamide] the same measures were less than 0.5 µM and greater than 20 µM.
For `C[C@@H](OCC1CCCCC1)[C@H](NC(=O)[C@@H]1CN(C(=O)c2cnn(Cc3ccccc3)c2)CC12CN(C(=O)[C@H]1CC1(C)C)C2)C(=O)NS(=O)(=O)c1ccc(F)cc1F` [Example I-26, (S)-6-(1-benzyl-1H-pyrazole-4-carbonyl)-N-((2S,3R)-3-(cyclohexylmethoxy)-1-((2,4-difluorophenyl)sulfonamido)-1-oxobutan-2-yl)-2-((S)-2,2-dimethylcyclopropane-1-carbonyl)-2,6-diazaspiro[3.4]octane-8-carboxamide] the same measures were less than 0.5 µM and 0.5 to 5 µM.
As to `COP(=O)(CCNC(=O)[C@@H](NC(=O)[C@@H]1CN(C(=O)c2cnn(Cc3ccccc3)c2)CC12CN(C(=O)[C@H]1CC1(C)C)C2)[C@@H](C)OCC1CCCCC1)OC` [Example I-27], the IC50 on CDK2/Cyclin E1 (ADPGLO (CDK2/E1-37C): IC50 (μM)) is less than 0.5 µM; in the test with Kuramochi cells (setting [3]) it was 0.5 to 5 µM.
On to `C[C@@H](OCC1CCCCC1)[C@H](NC(=O)[C@@H]1CN(C(=O)c2cnn(Cc3ccccc3)c2)CC12CN(C(=O)[C@H]1CC1(C)C)C2)C(=O)N1CCN(c2ccc(C(=O)O)cc2)CC1` [Example I-28], for which the IC50 at CDK2/Cyclin E1 (setting [1]) was less than 0.5 µM; in the test on Kuramochi cells (setting [2]), 0.5 to 5 µM.
With `C[C@@H](OCC1CCCCC1)[C@H](NC(=O)[C@@H]1CN(C(=O)c2cnn(Cc3ccc(C(F)(F)F)cc3)c2)CC12CN(C(=O)[C@H]1CC1(C)C)C2)C(=O)N1CCC(c2ccc(C(=O)O)cc2)CC1` [Example I-29], the IC50 was less than 0.5 µM at CDK2/Cyclin E1 (setting [1]) and 0.5 to 5 µM in the test on Kuramochi cells (setting [3]).
Regarding `C[C@@H](OCC1CCCCC1)[C@H](NC(=O)[C@@H]1CN(C(=O)c2cnn(CC3CCCCC3)c2)CC12CN(C(=O)[C@H]1CC1(C)C)C2)C(=O)N1CCC(c2ccc(C(=O)O)cc2)CC1` [Example I-30, 4-(1-(O-(cyclohexylmethyl)-N—((S)-6-(1-(cyclohexylmethyl)-1H-pyrazole-4-carbonyl)-2-((S)-2,2-dimethylcyclopropane-1-carbonyl)-2,6-diazaspiro[3.4]octane-8-carbonyl)-L-threonyl)piperidin-4-yl)benzoic acid], the IC50 at CDK2/Cyclin E1 (setting [1]) was less than 0.5 µM; in the test on Kuramochi cells (setting [2]), 0.5 to 5 µM.
Turning to `COC(=O)c1ccc(N2CCN(C(=O)[C@@H](NC(=O)[C@@H]3CN(C(=O)c4cnn(Cc5ccccc5)c4)CC34CN(C(=O)[C@H]3CC3(C)C)C4)[C@@H](C)OCC3CCCCC3)CC2)cc1` [Example I-31], the IC50 on CDK2/Cyclin E1 (setting [1]) and in the test with Kuramochi cells (setting [2]) was less than 0.5 µM throughout.
